Assay results published in ChEMBL document CHEMBL1129024, “Design, synthesis, and antitumor activity of bicyclic and isomeric analogues of illudin M” (Bioorg Med Chem Lett, 1996).

Tests used:
Assay type in all cases: functional, cell-based
A-375 = assay: In vitro antitumor activity against A375 (melanoma) human tumor cell lines.
A549 = assay: In vitro antitumor activity against A549 (lung) human tumor cell lines.
MDA-MB-231 = assay: In vitro antitumor activity against MB231 (breast) human tumor cell lines.
SW480 = assay: In vitro antitumor activity against SW480 (colon) human tumor cell lines.

Row | IC50 (A-375) [nM] | IC50 (A549) [nM] | IC50 (MDA-MB-231) [nM] | IC50 (SW480) [nM] | SMILES
1 | 4 | 150 | 110 | 120 | C/C=C1\C=C(C)C2(CC2)C(C)(O)C1=O (stereo not given)
2 | 2000 | 3000 | 2000 | 4000 | CC1=C/C(=C\C#CCCO)C(=O)C(C)(O)C12CC2 (stereo not given)
3 | > 10000 | > 10000 | > 10000 | > 10000 | CC1=C/C(=C\c2cccs2)C(=O)C(C)(O)C12CC2 (stereo not given)
4 | 18 | 2 | 28 | 180 | C=C/C=C1\C=C(C)C2(CC2)C(C)(O)C1=O (stereo not given)
5 | 32 | 250 | 2000 | 60 | C=C1C2=C(CC(C)(C)C2=O)C(=O)C(C)(O)C12CC2 (stereo not given)
6 | 130 | 110 | 300 | 30 | CC1=C/C(=C\C(C)C)C(=O)C(C)(O)C12CC2 (stereo not given)
7 | > 10000 | 1500 | 4000 | 2500 | CC1=C/C(=C\c2ccccc2)C(=O)C(C)(O)C12CC2 (stereo not given)
8 | 70 | 120 | 150 | 60 | COc1cccc2c1C(=O)c1c(O)c3c(c(O)c1C2=O)C[C@@](O)(C(=O)CO)C[C@@H]3O[C@H]1C[C@H](N)[C@H](O)[C@H](C)O1 [DOXORUBICIN]

Row | SMILES | IC50 (A-375) [nM] | IC50 (A549) [nM] | IC50 (MDA-MB-231) [nM] | IC50 (SW480) [nM]
9 | CC1=C/C(=C\Cl)C(=O)C(C)(O)C12CC2 (stereo not given) | 1000 | 200 | 300 | 30
10 | CC1=C2C(=O)C(C)(C)C=C2C(=O)[C@](C)(O)C12CC2 [DEHYDROILLUDIN M] | 550 | 200 | 450 | 300
